Laboratory results as given in paper PMC5853285, “Necessity of Bumped Kinase Inhibitor Gastrointestinal Exposure in Treating Cryptosporidium Infection” (The Journal of Infectious Diseases, 2017).
Values after ≈ are worked out from the molar mass of the structure shown.

How the values were obtained:
[1] = tested on: Cryptosporidium parvum; test: C. parvum growth inhibition by BKIs in vitro; assay type: cell-based; details: read-out: BKI EC50 for Inhibition of C. parvum Proliferation
Excerpt: (§1) Information regarding the C. parvum oocysts, generation of BKIs, CpCDPK1 enzyme inhibition, C. parvum growth inhibition by BKIs, plasma protein binding, and neonatal mouse model of C. parvum infection has been described in detail elsewhere. Information on BKI solubility and permeability, Gastroplus modeling, the interferon (IFN) γ knockout (KO) mouse model, and measurement of BKI levels in the GI tract of mice is described in the Supplementary Material. All animal experiments were approved by the Institutional Animal Care and Use Committees at the participating universities (University of Washington, University of Georgia, and University of Arizona).

[2] = Single oral dose pharmacokinetics of BKIs in mice (plasma); assay type: in vivo; details: mouse plasma
Protocol: Mouse oral PK studies were performed as previously described. Briefly, three female BALB/c mice (10 -12 weeks old) were used in each group. With the exception of 1556, each group of mice received an individual BKI at a dose of 10 mg/kg body weight by oral gavage in 200 μL 70% Tween 80/30% ethanol diluted in saline. The only difference for mice administered 1556 was that the group received a dose of 25 mg/kg. Blood samples were taken by tail bleeding into heparinized tubes at designated time points and centrifuged to obtain plasma. The samples were frozen at -20°C. The plasma samples were prepared by adding acetonitrile + 0.1% formic acid with an internal standard. Calibration curves were generated by spiking standards of each BKI into mouse serum and preparing the standards along with test samples. The PK calculations of Cmax and AUC were performed using Phoenix WinNonlin software (Certara, Princeton, NJ).

[3] = tested on: Cryptosporidium parvum; test: Neonatal mouse model of C. parvum infection; assay type: in vivo; design: concentration or dose not given beside the values
Excerpt: as §1

[4] = Plasma protein binding; assay type: in vitro ADME
Excerpt: as §1

[5] = tested on: Cryptosporidium parvum; test: IFN-γ KO adult mouse model of C. parvum infection (Nluc oocyst shedding); assay type: in vivo; details: IFN-γ KO mice, 6 mg/kg once daily oral for 5 days
Excerpt: The ability to predict in vivo efficacy with BKI ascending colon concentrations was further evaluated in an adult model of C. parvum infection. Female IFN-γ KO mice were infected with transgenic C. parvum strain UGA1 expressing nanoluciferase (Nluc), and the infection was allowed to proceed for 3–5 days. […] To account for daily growth of parasites over the course of the study, the observed RLUs in the vehicle-treated mice were used to simulate the growth of the parasite over the course of the experiment (Figure 4A). On each day of the study, the simulated parasite level was based on both the growth of the parasite and the predicted inhibition by BKI [[22–24]].
The efficacy of BKIs in an adult mouse model of C. parvum infection was tested as previously described. Briefly, all female IFN-γ KO mice (B6.129S7-Ifngtm1Ts/J, Jackson Laboratories), were infected by oral gavage (PO) with 10,000 Nluc expressing C. parvum oocysts in 100 μL DPBS for studies with 1534. For all other studies, mice were infected PO with 1,000 Nlucexpressing C. parvum oocysts. Vehicle control groups and BKI treated groups each contained at least three mice. […] The stool samples were checked for luminescence on the day of collection and RLU readings were standardized to fecal sample weights. […]

[6] = BKI aqueous solubility at pH 2 and 6.5; assay type: physicochemical; details: second of two values; measured at pH 2 and 6.5
Protocol: Briefly, 1 μL of 20 mM dimethyl sulfoxide (DMSO) stock was added to 199 μL of buffer. Samples were vortexed and allowed to incubate at 25 °C overnight. The next day, each sample was centrifuged at 13800 rpm for 40 minutes at 25 °C. The supernatant was collected and 100 μL of the supernatant was added to 100 μL acetonitrile. Solutions were analyzed by HPLC/UV and were quantified based on a five-point calibration curve for each analyte.

[7] = tested on: Cryptosporidium; design: method as in PMID 12423984; details: cited from earlier work

Row | Structure (SMILES) | EC50 [1] [nM] | AUC ([2]; single oral dose 10 mg/kg) [µmol·min/L] | Cmax ([2]; single oral dose 10 mg/kg) [nM] | Plasma Protein Binding [4] [%] | Solubility (second value) [6] [µM] | AUC ([2]; single oral dose 25 mg/kg) [µmol·min/L] | Cmax ([2]; single oral dose 25 mg/kg) [nM] | Reduction in Neonatal Mouse C. parvum Infection [3] [%] | in vivo efficacy (oocyst shedding, RLU) [5] | efficacy ([7]; human immunodeficiency virus–infected individuals) | response rate ([7]; malnourished children with cryptosporidiosis) [%]
1 | CCOc1ccc2cc(-c3nn(CC4CCN(C)CC4)c4ncnc(N)c34)ccc2c1 [BKI 1294] | 2700 | 430 | 800 | 84 | – | – | – | 56 | – | – | –
2 | CCOc1ccc2cc(-c3nn(CC4CCNCC4)c4ncnc(N)c34)ccc2n1 [BKI 1318] | 3200 | 2208 | 6500 | 55 | – | – | – | 65 | – | – | –
3 | CC(C)Cn1nc(-c2ccc3cc(OC4CC4)ccc3c2)c2c(N)ncnc21 [BKI 1534] | 2200 | 58 | 200 | 99 | 2 (≈ 0.747 µg/mL) | – | – | 61 | lack of BKI efficacy | – | –
4 | CC(=O)Oc1ccccc1C(=O)Nc1ncc([N+](=O)[O-])s1 [nitazoxanide] | – | – | – | – | – | – | – | – | – | no efficacy | 30

Continued, in another order:

Row | EC50 [1] [nM] | AUC ([2]; single oral dose 10 mg/kg) [µmol·min/L] | Cmax ([2]; single oral dose 10 mg/kg) [nM] | Plasma Protein Binding [4] [%] | Solubility (second value) [6] [µM] | AUC ([2]; single oral dose 25 mg/kg) [µmol·min/L] | Cmax ([2]; single oral dose 25 mg/kg) [nM] | Structure (SMILES) | Reduction in Neonatal Mouse C. parvum Infection [3] [%] | in vivo efficacy (oocyst shedding, RLU) [5] | efficacy ([7]; human immunodeficiency virus–infected individuals) | response rate ([7]; malnourished children with cryptosporidiosis) [%]
5 | 2300 | – | 300 | 37 | – | – | – | CCOc1ccc2cc(-c3nn(CC4CCN(C)CC4)c4ncnc(N)c34)ccc2n1 [BKI 1369] | 70 | – | – | –
6 | 3200 | – | – | 86 | 7 (≈ 2.62 µg/mL) | 2082 | 7000 | CC(C)Cn1nc(-c2ccc3nc(OC4CC4)ccc3c2)c2c(N)ncnc21 [BKI 1556] | 61 | – | – | –
7 | 5500 | 67 | 900 | 84 | 17 (≈ 7.08 µg/mL) | – | – | Nc1ncnc2c1c(-c1ccc3nc(OC4CC4)ccc3c1)nn2CC1CCOCC1 [BKI 1557] | 33 | – | – | –
8 | 2300 | 6416 | 4900 | 90 | 83 (≈ 32.3 µg/mL) | – | – | CC(C)(O)Cn1cc(-c2ccc3nc(OC4CC4)ccc3c2)c2c(N)ncnc21 [BKI 1649] | 56 | – | – | –
